According to patent publication US4348393A, “N-Aryl oxazolidinones, oxazolidinethiones, pyrrolidinones, pyrrolidines and thiazolidinones” (Delalande S.A., priority 1978, dated 1982):

Columns and labels:
[1] = system: ptosis observed one hour after reserpine; assay: Test B: antagonism of reserpine-induced ptosis in mice; assay type: in vivo; conditions: Mus musculus, 1 h, po, antagonism of ptosis one hour after reserpine 2 mg/kg intravenous, read-out: Test B ED 50
Protocol: Test B: Antagonism with respect to the ptosis observed one hour after an intravenous injection (2 mg/kg) of reserpine given to mice, following the protocol described by C.

[2] = Toxicity LD50 mouse; conditions: in vivo, po, read-out: Toxicity LD 50
[3] = system: generalized trembling caused by dl-5-hydroxytryptophane; assay: Test A: potentiation in mice of generalized trembling caused by dl-5-hydroxytryptophane; assay type: in vivo; conditions: Mus musculus, po, mice, potentiation of trembling by dl-5-hydroxytryptophane 200 mg/kg interperitoneal, read-out: Test A ED 50
Protocol: Test A: Potentiation in mice of generalized trembling caused by an interperitoneal injection (200 mg/kg) of dl-5-hydroxytryptophane, following the protocol described by C. GOURET and G. RAYNAUD in J. Pharmacol. (Paris), (1974), 5, 231.

Structure (SMILES)	ED50 [1]	LD50 [2]	ED50 [3]
COCC1CN(c2ccc(OCC3CCCOC3)cc2)C(=O)O1 (centres unmarked) [compound 182]	5.8 mg/kg	> 1000 mg/kg	3.7 mg/kg
COCC1CN(c2ccc(OCC3CCC3)cc2)C(=O)O1 (centres unmarked) [compound 183]	2.4 mg/kg	> 1000 mg/kg	1.9 mg/kg
COCC1CN(c2ccc(OCC3=CCCC3)cc2)C(=O)O1 (centres unmarked) [compound 184]	0.72 mg/kg	> 1000 mg/kg	1.2 mg/kg
COCC1CN(c2ccc(OCC=C(C)C)cc2)C(=O)O1 (centres unmarked) [compound 185]	7 mg/kg	> 1000 mg/kg	12 mg/kg
COCC1CN(c2ccc(OCC3(C)CCCC3)cc2)C(=O)O1 (centres unmarked) [compound 186]	3 mg/kg	> 1000 mg/kg	3 mg/kg
COCC1CN(c2ccc(/C=C/c3ccccc3)cc2)C(=O)O1 (centres unmarked) [compound 187]	1.3 mg/kg	> 1000 mg/kg	2.7 mg/kg
COCC1CN(c2ccc(OCC3CCC(=O)CC3)cc2)C(=O)O1 (centres unmarked) [compound 188]	0.4 mg/kg		0.3 mg/kg
COCC1CN(c2ccc(C#Cc3ccccc3)cc2)C(=O)O1 (centres unmarked) [compound 189]	0.9 mg/kg	> 1000 mg/kg	2.6 mg/kg
COCC1CN(c2ccc(/C=C/c3cccc(Cl)c3)cc2)C(=O)O1 (centres unmarked) [compound 190]	0.23 mg/kg	> 1000 mg/kg	1 mg/kg
COCC1CN(c2ccc(/C=C/c3cccc([N+](=O)[O-])c3)cc2)C(=O)O1 (centres unmarked) [compound 191]	0.38 mg/kg	1000 mg/kg	0.4 mg/kg
COCC1CN(c2ccc(CCc3ccccc3)cc2)C(=O)O1 (centres unmarked) [compound 192]	6 mg/kg	> 1000 mg/kg	5.8 mg/kg
COCC1CN(c2ccc(/C=C\c3ccccc3)cc2)C(=O)O1 (centres unmarked) [compound 193]	30 mg/kg		19 mg/kg
COCC1CN(c2ccc(/C=C\c3cccc([N+](=O)[O-])c3)cc2)C(=O)O1 (centres unmarked) [compound 194]	5.8 mg/kg		6.4 mg/kg
COCC1CN(c2ccc(-c3ccccc3)cc2)C(=O)O1 (centres unmarked) [compound 195]	2.2 mg/kg	> 1000 mg/kg	1.2 mg/kg
COCC1CN(c2ccc(/C=C/c3cccc(C#N)c3)cc2)C(=O)O1 (centres unmarked) [compound 196]	0.55 mg/kg	> 1000 mg/kg	
COCC1CN(c2ccc(OCc3cccc(Br)c3)cc2)C(=O)O1 (centres unmarked) [compound 197]	6.7 mg/kg	> 1000 mg/kg	2.2 mg/kg

Structure (SMILES)	ED50 [1]	LD50 [2]	ED50 [3]
COCC1CN(c2ccc(OCc3cccc(I)c3)cc2)C(=O)O1 (centres unmarked) [compound 198]	34 mg/kg	> 1000 mg/kg	40 mg/kg
COC[C@H]1CN(c2ccc(OCc3cccc(C#N)c3)cc2)C(=O)O1 [compound 199]		> 1000 mg/kg	0.31 mg/kg
COC[C@@H]1CN(c2ccc(OCc3cccc(C#N)c3)cc2)C(=O)O1 [compound 200]		> 1000 mg/kg	1.7 mg/kg
CC(C)NCC1CN(c2ccc(OCc3cccc([N+](=O)[O-])c3)cc2)C(=O)O1 (centres unmarked) [compound 201]	6.8 mg/kg	> 1000 mg/kg	7.4 mg/kg
O=C1OC(CN2CCOCC2)CN1c1ccc(OCc2cccc([N+](=O)[O-])c2)cc1 (centres unmarked) [compound 202]	10 mg/kg	> 1000 mg/kg	10 mg/kg
CCNCC1CN(c2ccc(OCc3cccc([N+](=O)[O-])c3)cc2)C(=O)O1 (centres unmarked) [compound 203]	1.4 mg/kg	1000 mg/kg	5.2 mg/kg
N#Cc1cccc(COc2ccc(N3CC(CN)OC3=O)cc2)c1 (centres unmarked) [compound 205]	3 mg/kg	> 1000 mg/kg	10.1 mg/kg
CN(C)CC1CN(c2ccc(OCc3cccc(C#N)c3)cc2)C(=O)O1 (centres unmarked) [compound 206]	4.3 mg/kg	> 1000 mg/kg	6 mg/kg
NCC1CN(c2ccc(OCc3cc(Cl)cc([N+](=O)[O-])c3)cc2)C(=O)O1 (centres unmarked) [compound 207]	7.6 mg/kg	> 1000 mg/kg	9.1 mg/kg
CCC(=O)OCC1CN(c2ccc(OCc3cccc([N+](=O)[O-])c3)cc2)C(=S)O1 (centres unmarked) [compound 208]	4.2 mg/kg	> 1000 mg/kg	10 mg/kg
N#Cc1cc(COc2ccc(N3CC(CO)OC3=S)cc2)ccc1F (centres unmarked) [compound 209]	6.7 mg/kg	1000 mg/kg	7 mg/kg
CCCOCC1CN(c2ccc(OCc3cccc([N+](=O)[O-])c3)cc2)C(=S)O1 (centres unmarked) [compound 210]	7.4 mg/kg	> 1000 mg/kg	26 mg/kg
COCC1CN(c2ccc(OCC3CCCC3)cc2)C(=S)O1 (centres unmarked) [compound 211]	1.2 mg/kg	1000 mg/kg	2 mg/kg
N#CCCCOc1ccc(N2CC(CO)OC2=S)cc1 (centres unmarked) [compound 212]	12 mg/kg	1000 mg/kg	4.3 mg/kg
COCC1CN(c2ccc(OCCCCC#N)cc2)C(=S)O1 (centres unmarked) [compound 217]	1 mg/kg		1 mg/kg
